Source: ChEMBL document CHEMBL1124314, “Development of phosphonate derivatives of gadolinium chelates for NMR imaging of calcified soft tissues” (J Med Chem, 1989)

How the values were obtained:
Rattus norvegicus [1] = species: Rattus norvegicus; assay: Biodistribution in rat muscle in the presence of 0.01 M GdDTPA-BDP; type: ADME, organism-based, Muscle tissue; conditions: in vivo
Rattus norvegicus [2] = species: Rattus norvegicus; assay: Biodistribution in rat liver in the presence of 0.01 M GdDTPA-BDP; type: ADME, organism-based; conditions: in vivo
Rattus norvegicus [3] = species: Rattus norvegicus; assay: Biodistribution in rat muscle in the presence of 0.05 M GdDTPA-BDP; type: ADME, organism-based, Muscle tissue; conditions: in vivo
Rattus norvegicus [4] = species: Rattus norvegicus; assay: Biodistribution in rat liver in the presence of NAC Gd/0.01 M GdDTPA-HPDP; type: ADME, organism-based; conditions: in vivo
Rattus norvegicus [5] = species: Rattus norvegicus; assay: Biodistribution in rat bone in the presence of 0.01 M/0.01 M GdDTPA-AEP; type: ADME, organism-based, Bone element; conditions: in vivo
Rattus norvegicus [6] = species: Rattus norvegicus; assay: Biodistribution in rat heart in the presence of 0.05 M /0.05 M GdDTPA-AEP; type: ADME, organism-based; conditions: in vivo
Rattus norvegicus [7] = species: Rattus norvegicus; assay: Biodistribution in rat liver in the presence of GdDTPA-BDP at 20 min; conditions: in vivo, 0.33 h
Rattus norvegicus [8] = species: Rattus norvegicus; assay: Biodistribution in rat bone in the presence of GdDTPA at 30 min; type: ADME, organism-based, Bone element; conditions: in vivo, 0.5 h
Rattus norvegicus [9] = species: Rattus norvegicus; assay: Biodistribution in rat heart in the presence of GdDTPA-HPDPat 15 min; type: ADME, organism-based; conditions: in vivo, 0.25 h
Rattus norvegicus [10] = species: Rattus norvegicus; assay: Biodistribution in rat liver in the presence of GdDTPA-HPDP at 30 min; type: ADME, organism-based; conditions: in vivo, 0.5 h
Rattus norvegicus [11] = species: Rattus norvegicus; assay: Biodistribution in rat bone in the presence of GdDTPA-BDP at 20 min; conditions: in vivo, 0.33 h
Rattus norvegicus [12] = species: Rattus norvegicus; assay: Biodistribution in rat blood in the presence of 0.001 M/0.008 M GdDTPA-AEP; type: ADME, organism-based; conditions: in vivo
Rattus norvegicus [13] = species: Rattus norvegicus; assay: Biodistribution in rat bone in the presence of GdDTPA-HPDP at 30 min; type: ADME, organism-based, Bone element; conditions: in vivo, 0.5 h
Rattus norvegicus [14] = species: Rattus norvegicus; assay: Biodistribution in rat bone in the presence of GdDTPA-HPDP at 15 min; type: ADME, organism-based, Bone element; conditions: in vivo, 0.25 h
Rattus norvegicus [15] = species: Rattus norvegicus; assay: Biodistribution in rat bone in the presence of GdDTPA-HPDP at 4 hr; type: ADME, organism-based, Bone element; conditions: in vivo
Rattus norvegicus [16] = species: Rattus norvegicus; assay: Biodistribution in rat blood in the presence of 0.05 M/0.08 M GdDTPA-HPDP; type: ADME, organism-based; conditions: in vivo
Rattus norvegicus [17] = species: Rattus norvegicus; assay: Biodistribution in rat heart in the presence of GdDTPA-BDP at 4 hr; conditions: in vivo
Rattus norvegicus [18] = species: Rattus norvegicus; assay: Biodistribution in rat blood in the presence of GdDTPA at 30 min; type: ADME, organism-based; conditions: in vivo, 0.5 h
Rattus norvegicus [19] = species: Rattus norvegicus; assay: Biodistribution in rat blood in the presence of GdDTPA-BDP at 4 hr; type: ADME, organism-based; conditions: in vivo
Rattus norvegicus [20] = species: Rattus norvegicus; assay: Biodistribution in rat liver in the presence of GdDTPA-HPDP at 1 hr; type: ADME, organism-based; conditions: in vivo
Rattus norvegicus [21] = species: Rattus norvegicus; assay: Biodistribution in rat blood in the presence of GdDTPA-BDP at 20 min; conditions: in vivo, 0.33 h
Rattus norvegicus [22] = species: Rattus norvegicus; assay: Biodistribution in rat blood in the presence of GdDTPA-BDPat 1 hr; type: ADME, organism-based; conditions: in vivo
Rattus norvegicus [23] = species: Rattus norvegicus; assay: Biodistribution in rat heart in the presence of 0.10 M/0.11 M GdDTPA-HPDP; conditions: in vivo
Rattus norvegicus [24] = species: Rattus norvegicus; assay: Biodistribution in rat heart in the presence of 0.01 M GdDTPA-BDP; type: ADME, organism-based; conditions: in vivo
Rattus norvegicus [25] = species: Rattus norvegicus; assay: Biodistribution in rat kidney in the presence of 0.05 M/0.08 M GdDTPA-HPDP; type: ADME, organism-based; conditions: in vivo
Rattus norvegicus [26] = species: Rattus norvegicus; assay: Biodistribution in rat blood in the presence of NAC Gd/0.01 M GdDTPA-HPDP; type: ADME, organism-based; conditions: in vivo
Rattus norvegicus [27] = species: Rattus norvegicus; assay: Biodistribution in rat blood in the presence of 0.01 M GdDTPA-BDP; type: ADME, organism-based; conditions: in vivo
Rattus norvegicus [28] = species: Rattus norvegicus; assay: Biodistribution in rat kidney in the presence of 0.01 M/0.01 M GdDTPA-AEP; type: ADME, organism-based; conditions: in vivo
Rattus norvegicus [29] = species: Rattus norvegicus; assay: Biodistribution in rat blood in the presence of 0.05 M GdDTPA-BDP; type: ADME, organism-based; conditions: in vivo
Rattus norvegicus [30] = species: Rattus norvegicus; assay: Biodistribution in rat bone in the presence of GdDTPA at 1 hr; type: ADME, organism-based, Bone element; conditions: in vivo
Rattus norvegicus [31] = species: Rattus norvegicus; assay: Biodistribution in rat blood in the presence of 0.01 M/0.01 M GdDTPA-AEP; type: ADME, organism-based; conditions: in vivo
Rattus norvegicus [32] = species: Rattus norvegicus; assay: Biodistribution in rat blood in the presence of 0.10 M/0.11 M GdDTPA-HPDP; conditions: in vivo
Rattus norvegicus [33] = species: Rattus norvegicus; assay: Biodistribution in rat heart in the presence of 0.05 M/0.08 M GdDTPA-HPDP; type: ADME, organism-based; conditions: in vivo
Rattus norvegicus [34] = species: Rattus norvegicus; assay: Biodistribution in rat muscle in the presence of GdDTPA-BDPat 15 min; type: ADME, organism-based, Muscle tissue; conditions: in vivo, 0.25 h
Rattus norvegicus [35] = species: Rattus norvegicus; assay: Biodistribution in rat heart in the presence of GdDTPA-BDP at 2 hr; conditions: in vivo
Rattus norvegicus [36] = species: Rattus norvegicus; assay: Biodistribution in rat muscle in the presence of GdDTPA-HPDP at 1 hr; type: ADME, organism-based, Muscle tissue; conditions: in vivo
Rattus norvegicus [37] = species: Rattus norvegicus; assay: Biodistribution in rat liver in the presence of 0.05 M/0.08 M GdDTPA-HPDP; type: ADME, organism-based; conditions: in vivo
Rattus norvegicus [38] = species: Rattus norvegicus; assay: Biodistribution in rat muscle in the presence of GdDTPA-HPDPat 30 min; type: ADME, organism-based, Muscle tissue; conditions: in vivo, 0.5 h
Rattus norvegicus [39] = species: Rattus norvegicus; assay: Biodistribution in rat bone in the presence of GdDTPA-BDP at 1 h; conditions: in vivo
Rattus norvegicus [40] = species: Rattus norvegicus; assay: Biodistribution in rat heart in the presence of GdDTPA at 4 hr; type: ADME, organism-based; conditions: in vivo
Rattus norvegicus [41] = species: Rattus norvegicus; assay: Biodistribution in rat heart in the presence of GdDTPA-HPDP at 1 hr; type: ADME, organism-based; conditions: in vivo
Rattus norvegicus [42] = species: Rattus norvegicus; assay: Biodistribution in rat heart in the presence of GdDTPA; conditions: in vivo
Rattus norvegicus [43] = species: Rattus norvegicus; assay: Biodistribution in rat bone in the presence of GdDTPA-BDP at 4 hr; type: ADME, organism-based, Bone element; conditions: in vivo
Rattus norvegicus [44] = species: Rattus norvegicus; assay: Biodistribution in rat liver in the presence of 0.05 M GdDTPA-BDP; type: ADME, organism-based; conditions: in vivo

O=C(O)CN(CCN(CC(=O)O)CC(=O)O)CCN(CC(=O)O)CC(=O)O [PENTETIC ACID]
ID/organ (Rattus norvegicus [1]): 4.38%
ID/organ (Rattus norvegicus [2]): 5.21%
ID/organ (Rattus norvegicus [3]): 4.47%
ID/organ (Rattus norvegicus [4]): 0.082%
ID/organ (Rattus norvegicus [5]): 0.641%
ID/organ (Rattus norvegicus [6]): 0.016%
ID/organ (Rattus norvegicus [7]): 1.02%
ID/organ (Rattus norvegicus [8]): 0.779%
ID/organ (Rattus norvegicus [9]): 0.081%
ID/organ (Rattus norvegicus [10]): 0.519%
ID/organ (Rattus norvegicus [11]): 11%
ID/organ (Rattus norvegicus [12]): 0.143%
ID/organ (Rattus norvegicus [13]): 16.8%
ID/organ (Rattus norvegicus [14]): 15.5%
ID/organ (Rattus norvegicus [15]): 18.1%
ID/organ (Rattus norvegicus [16]): 0.27%
ID/organ (Rattus norvegicus [17]): 0.037%
ID/organ (Rattus norvegicus [18]): 1.02%
ID/organ (Rattus norvegicus [19]): 2.26%
ID/organ (Rattus norvegicus [20]): 0.201%
ID/organ (Rattus norvegicus [21]): 4.43%
ID/organ (Rattus norvegicus [22]): 2.53%
ID/organ (Rattus norvegicus [23]): 0.006%
ID/organ (Rattus norvegicus [24]): 0.129%
ID/organ (Rattus norvegicus [25]): 0.423%
ID/organ (Rattus norvegicus [26]): 0.26%
ID/organ (Rattus norvegicus [27]): 9.49%
ID/organ (Rattus norvegicus [28]): 0.222%
ID/organ (Rattus norvegicus [29]): 2.53%
ID/organ (Rattus norvegicus [30]): 0.779%
ID/organ (Rattus norvegicus [31]): 0.503%
ID/organ (Rattus norvegicus [32]): 0.19%
ID/organ (Rattus norvegicus [33]): 0.007%
ID/organ (Rattus norvegicus [34]): 8.97%
ID/organ (Rattus norvegicus [35]): 0.048%
ID/organ (Rattus norvegicus [36]): 0.889%
ID/organ (Rattus norvegicus [37]): 0.109%
ID/organ (Rattus norvegicus [38]): 4.09%
ID/organ (Rattus norvegicus [39]): 17.6%
ID/organ (Rattus norvegicus [40]): 0.002%
ID/organ (Rattus norvegicus [41]): 0.011%
ID/organ (Rattus norvegicus [42]): 0.019%
ID/organ (Rattus norvegicus [43]): 18.5%
ID/organ (Rattus norvegicus [44]): 1.23%
